# Reference: patent publication US12653775B2, “Canine topical formulations and methods thereof” (priority 2023, dated 2026)
# Legend:
# [1] = test system: Methicillin-resistant Staphylococcus pseudintermedius (MRSP) clinical isolate biofilm; assay: Minimum biofilm eradication concentration (MBEC) assay, Calgary Biofilm Device; assay type: cell-based
# Method: (§1) Minimum biofilm eradication concentration (MBEC) values provide estimates on the concentration of an antimicrobial product required to kill bacterial biofilm.
# (§2) The CBD plate was incubated with
# (§3) All test articles were tested in triplicate.
# [2] = test system: biofilms of S. pseudintermedius; assay: In vitro biofilm eradication study; assay type: cell-based
# [3] = test system: P. aeruginosa PAE 1103 (multi-drug resistant clinical isolate) biofilm; assay type: cell-based, Pseudomonas aeruginosa; conditions: MDR P. aeruginosa; TP1 undiluted, micronized silver at lowest concentration 0.05% v/v
# Method: as §1, §2, §3
# [4] = test system: biofilms of Pseudomonas aeruginosa; assay: In vitro biofilm eradication study; assay type: cell-based
Substance,"MBEC ([1]; MRSP clinical isolate biofilm, treated 24 hours at 35° C.)","biofilm eradication (in words) ([1]; MRSP, TP1 undiluted, micronized silver at lowest concentration 0.05% v/v)",biofilm eradication (in words) [2],biofilm eradication (in words) [3],biofilm eradication (in words) [4]
Gentamicin [reference compound],0.25 µg/mL,–,–,–,–
Silver ions,–,effective in eradicating the biofilms,effective in eradicating the biofilms,effective in eradicating the biofilms,effective in eradicating the biofilms
